Results published in patent publication US12134601B2, “Compounds for inhibiting LY6K and methods of using same” (The Henry M. Jackson Foundation for the Advancement of …, priority 2017, dated 2024).

Assays:
[1] = target: T1, Ly6D (Homo sapiens, UniProt Q14210); assay: Surface plasmon resonance binding to Ly6D
T1 construct: Mature form of Ly6E, Ly6D and Ly6K were cloned in pET24a N-term His tag vector; His tag (N); made in house; host or cells: E. coli BL21DE
T1 sequence (Q14210 21-98 limits assumed): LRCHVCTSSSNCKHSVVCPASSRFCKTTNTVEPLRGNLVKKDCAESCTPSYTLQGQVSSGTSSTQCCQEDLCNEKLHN
Description: (§1) FIG. 11: Small molecule binders of Ly6K. (A) Mature form of Ly6E, Ly6D and Ly6K were cloned in pET24a N-term His tag vector (Epoch Biosciences); expressed in BL21DE E. coli; purified recombinant protein was prepared using histidine column in using a batch purification method and eluted in 500 mM imidazole PBS, dialyzed in PBS. 5 μl of eluate was run on the 15% SDS-PAGE showing the purity with expected size protein of single band. (B) Structure of NSC243928. (G) Structure of NSC11150. (C-F; H-K) Representative surface plasmon resonance (SPR) sensorgrams show time on X-axis and SPR binding response on Y-axis. […] The corresponding data for NSC11150 are shown in corresponding lower panel.
(§2) We performed a surface plasmon resonance assay using the Biacore T100 by immobilizing the purified human Ly6K protein on the surface of a CM5 chip and screening the binding with a small molecule library containing 2000 compounds (Developmental Therapeutics Program, NCI). An initial screening of molecules was performed at 1 or 10 μM compound, based on solubility. We used a model that compares the actual binding maximum (RUactual) with the theoretical binding maximum (RUtheor). […] Hits (RUactual to RUtheor of 0.7-2.0) were then reviewed by a team of medicinal chemists and those with structural potential were selected for further study. […]

[2] = target: T2, Ly6E (Homo sapiens, UniProt Q16553); assay: Surface plasmon resonance binding to Ly6E
T2 construct: Mature form of Ly6E, Ly6D and Ly6K were cloned in pET24a N-term His tag vector; His tag (N); made in house; host or cells: E. coli BL21DE
T2 sequence (Q16553 21-101 limits assumed): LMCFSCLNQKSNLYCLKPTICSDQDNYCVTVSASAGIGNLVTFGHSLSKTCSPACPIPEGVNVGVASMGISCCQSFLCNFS
Description: as §1, §2

[3] = system: 4T1 mammary tumor; assay: 4T1 mammary tumor growth in syngeneic mouse model; format: in vivo, mice (Balb/c); conditions: 5 mg/kg/i.p. after tumor establishment at 50-70 mm^3
Text: FIG. 4: Ly6K is required for tumor growth in syngeneic mammary tumor models. (A) The qRT-PCR analysis using […] gene expression assay for mRNA levels in scrambled shRNA (Con) and Ly6K knockdown (Ly6K sh) cells. (B) The western blot analysis (cell signaling antibodies). (C) For 4T1 model, 20K cells/site in Balb/c mice and for E0771, 500K cells/site in C57BL/6 syngeneic mice were transplanted into lower mammary fat pad by subcutaneous injection (number of mice 10 per cell line pair). Tumor measurements were performed using a Vernier caliper. The tumor volumes were calculated using equation 1⁄2*length*(width*width). ** indicates p<0.001 and NS=non-significant (p>0.05) in a two tailed student T-test. FIG. 5: Effect of small molecules on in vivo tumor growth. (A) NCI data-Indicated doses of NSC243928 in saline were given by intraperitoneal route (i.p.) every day for 9 days to BIDF syngeneic mice carrying […] leukemia cells. Each group has 6 mice. Mouse were monitored for 30 days after drug treatment. […] The ** represents p<0.005 in a two tailed student T-test. Each group has 10 mice. We used surface plasmon resonance to identify small molecule binders of Ly6K. We screened a panel of 2000 small molecules, obtained from the Developmental Therapeutic Program (DTP, NCI). […]

[4] = system: TGFβ1/Smad2/3 signaling; assay: TGFβ1-induced Smad2/3 phosphorylation (western blot); format: cell-based, human; conditions: 2 μM drug, 30 minutes
Description: (§3) FIG. 12: Effect of small molecule binders of Ly6K. (A) Indicated cells were seeded and allowed to attach overnight, then treated with 2 μM drugs for 72 hours. Cell titer assay was performed to measure cell growth. (B) Cells were serum starved and treated with 100 ng/ml IFNγ with 2 μM drugs. PD-L1 was measure in live cells (using a zombie live-dead stain) as described in FIG. 3A. The graph was plotted from three experiments. (C, D) Indicated cells were allowed to attach, serum starved overnight and then treated with TGFβ (C) or IFNγ (D) in the presence of 2 μM drug for 30 minutes and western blot analysis was performed. The *** represents p<0.0005 and NS=non-significant in a two-tailed student T-test.
(§4) NSC243928 inhibited the TGFβ1 induced phosphorylation of Smad2/3; NSC11150 had no effect on TGFβ1/Smad2/3 signaling (FIG. 12C). NSC11150 inhibited IFNγ induced phosphorylation of Stat1; NSC243928 had no effect on IFNγ/Stat1 signaling (FIG. 12D).

[5] = system: MDA-MB-231 cells (control and Ly6K knockdown); assay: Cell titer assay of cell growth / cell death; format: cell-based, human; conditions: for Cell growth: 72 hours
Description: as §3, with “(A) Indicated cells were seeded and allowed to attach overnight, then treated with 2 μM drugs for 72 hours.” left out
as §4

[6] = system: IFNγ/Stat1 signaling; assay: IFNγ-induced Stat1 phosphorylation (western blot); format: cell-based, human; conditions: 2 μM drug, 30 minutes
Description: as §3, §4

[7] = Preliminary experiments for maximum tolerated dose; format: in vivo; conditions: 5 mg/kg/ip
[8] = target: T3, human Ly6K protein (Homo sapiens, UniProt Q17RY6); assay: Surface plasmon resonance binding to immobilized Ly6K (Biacore T100)
T3 construct: correspond to residues 18-138, which constitute the mature form of Ly6K; His tag (N); made in house; host or cells: E. coli BL21DE
T3 sequence (Q17RY6 18-138): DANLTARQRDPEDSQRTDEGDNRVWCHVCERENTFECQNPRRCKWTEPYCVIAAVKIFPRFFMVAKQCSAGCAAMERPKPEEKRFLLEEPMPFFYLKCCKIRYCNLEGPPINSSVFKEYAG
Description: as §1
We used surface plasmon resonance to identify small molecule binders of Ly6K. We screened a panel of 2000 small molecules, obtained from the Developmental Therapeutic Program (DTP, NCI). […] These five molecules were further tested for their ability to induce cell death, TGFβ1/Smad2/3 phosphorylation, IFNγ/Stat1 phosphorylation and PD-L1 protein expression. NSC243928 and NSC11150 were selected for further study on the basis of specificity and selectivity in bio-assays and structural flexibility, which allow future modifications required for in-depth studies (described in FIG. 11). The small molecule NSC243928 has been previously used in an in vivo anti-tumor screen by the NCI on a L1210 leukemia model in BDF1 syngeneic mice, a standard model used between 1955 and 1975. The average survival in this tumor model is 2-3 weeks. Treatment with NSC243928 increased survival benefit from 30% to 100% in a dose dependent manner. […] NSC11150 was not tested in in-vivo or in-vitro anti-tumor screens. […] As discussed infra, NSC243928 and NSC11150 inhibit TGFβ and PD-L1 pathways in a Ly6K dependent manner, indicating a mechanistic basic for the novel activities of these compounds (please see FIG. 11, 12). These experiments provide proof of the principle that small molecule targeting of Ly6K will have functional consequences and potentially lead to a better outcome in cancer treatment. […]

[9] = system: PD-L1; assay: IFNγ-induced PD-L1 protein expression in live cells (flow cytometry); format: cell-based, human; conditions: control cells, 100 ng/ml IFNγ, 2 μM drug
Description: FIG. 3: Ly6K is required for IFNγ/PD-L1 pathway. (A) Indicated cells were serum starved prior to treatment with IFNγ 100 ng/ml overnight. Cells were labeled with anti-PD-L1 BV540 antibody or isotype control antibody prior to fixation to assess the cell surface expression of PD-L1 protein. Percentage of high PD-L1 cells were plotted in a bar graph from three different experiments and subjected to a two tailed student T-test, wherein p<0.05 is considered significant. (B) Western blotting analysis for indicated proteins. (C) Hypothesized effect of Ly6K on IFNγ/Stat1 pathway leading to increased PD-L1.
as §3, with “T-test. […]” for “T-test.”

[10] = system: L1210 leukemia; conditions: up to 10 mg/kg/i.p.; cited from earlier work

| Compound | SPR binding response to Ly6D [1] | SPR binding response to Ly6E [2] | 4T1 mammary tumor growth [3] | TGFβ1 induced phosphorylation of Smad2/3 [4] | Effect on cell death ([5]; 2 μM) | Cell death ([5]; 100 μM, both control and Ly6K knockdown cells) | IFNγ induced phosphorylation of Stat1 [6] | Therapeutic benefit [7] | SPR binding response to Ly6K [8] | Kd ([8]; SPR) [µM] | PD-L1 protein expression [9] | Toxicity [10] | Cell growth ([5]; Ly6K knockdown MDA-MB-231 cells, 2 μM) | Cell growth ([5]; control MDA-MB-231 cells, 2 μM) | Visible toxicity [7] |
| --- | --- | --- | --- | --- | --- | --- | --- | --- | --- | --- | --- | --- | --- | --- | --- |
| Oc1ccc(Cc2ccc(Cl)cc2)c(O)c1 [NSC11150, 4-(4-chlorobenzyl)benzene-1,3-diol] | don't show binding response | don't show binding response | suppress 4T1 mammary tumor growth | had no effect | did not show significant effect | induced cell death | inhibited | therapeutic benefit | binding response in dose dependent manner | 1.6 | inhibition of PD-L1 expression |  |  |  |  |
| CCS(=O)(=O)Nc1ccc(Nc2c3ccccc3nc3ccccc23)c(OC)c1.CS(=O)(=O)O [NSC243928, 4′-(9-Acridinylamino)-3′-methoxyethanesulfonanilide methanesulfonate] | don't show binding response | don't show binding response | suppress 4T1 mammary tumor growth | inhibited |  |  | had no effect | therapeutic benefit | binding response in dose dependent manner |  | did not show significant effect | not found to be toxic | lost its activity | diminished the growth | no visible toxicity |
